Measured values taken from patent US8753838B2, “Method for producing alcohol using bioethanol waste fermented solution” (Korea Institute of Science and Technology, priority 2010, dated 2014).
“Also recorded” adds a separate entry of the source.

Columns and labels:
[1] = system: Clostridium pasteurianum (C. pasteurianum DSM 525); assay: Alkaline agent for pH control of medium: growth and butanol production of Clostridium pasteurianum (Example 4); format: cell-based; conditions: for cell growth (order of alkaline agents): medium of Example 1 with 10 g/L lactic acid, pH adjusted to 6.5 using each alkaline agent
Excerpt: In the experiment for evaluating the effect of lactic acid, acetic acid and ethanol on the growth of Clostridium pasteurianum (C. pasteurianum DSM 525), sodium hydroxide (NaOH) was used to adjust the pH of the medium. Since the ethanol waste fermented solution has a pH of 4-5, the pH needs to be controlled using an alkaline agent in order to produce butanol using the Clostridium pasteurianum (C. pasteurianum DSM 525). In addition to sodium hydroxide, potassium hydroxide (KOH), calcium hydroxide (Ca(OH)2), ammonia water (NH4OH), etc. are available as the alkaline agent. It was investigated whether the growth of Clostridium pasteurianum (C. pasteurianum DSM 525) is affected by the alkaline agents. For this purpose, after adding lactic acid (10 g/L) to the medium of Example 1, pH was adjusted to 6.5 using each alkaline agent.

[2] = system: Clostridium pasteurianum (DSM 525); assay: Effect of lactic acid, acetic acid and ethanol on growth and butanol production of Clostridium pasteurianum in glycerol medium (Example 1); format: cell-based; conditions: for inhibition of the growth of Clostridium pasteurianum (OD600): added to the medium up to 10 g/L, pH 6.5, 37° C.
Procedure: The butanol-producing bacterium Clostridium pasteurianum (DSM 525) was acquired from the DSMZ (Germany). The medium used for experiment was prepared with primarily distilled water (1 L) by adding the following ingredients: glycerol (30 g), K2HPO4 (0.5 g), KH2PO4 (0.5 g), MnSO4.H2O (0.01 g), MgSO4.7H2O (0.2 g), FeSO4.7H2O (0.01 g), NaCl (0.01 g), yeast extract (1 g), (NH4)2SO4 (2 g), MES (19.52 g), biotin (0.00001 g), thiamine (0.001 g) and p-aminobenzoic acid (0.001 g).
After adding lactic acid (C3H6O3, 0-14.6 g/L), acetic acid (C2H4O2, 0-10 g/L) or ethanol (C2H60, 0-20 g/L) to the medium, the pH was adjusted to 6.5 using potassium hydroxide (KOH) or sodium hydroxide (NaOH). After placing the medium (50 mL) in a 125-mL serum bottle and removing oxygen by blowing in argon gas, the bottle was sealed with a butyl rubber stopper and an aluminum cap. After sterilizing under high pressure and inoculating Clostridium pasteurianum cultured for 1-2 days at 5% (v/v), the bacterium was cultured at 37° C. while shaking at 130 rpm.
The cell growth was determined by measuring absorbance (optical density) at 600 nm (OD600).

SMILES | inhibition of the growth of Clostridium pasteurianum (OD600) [2] | cell growth (order of alkaline agents) [1] | also measured
[Na] [sodium] | – | – | growth of the microorganism ([1]; as compared to potassium): inhibits the growth
CC(=O)O [acetic acid] | did not result in severe inhibition | – | –
CCO [ethanol] | did not result in severe inhibition | – | –
[Ca+2].[OH-].[OH-] [calcium hydroxide, calcium hydroxide (Ca(OH)2)] | – | faster in the order of calcium hydroxide, potassium hydroxide, ammonia water and sodium hydroxide | –
CC(O)C(=O)O (stereo not drawn) [Lactic acid, lactic acid] | did not result in severe inhibition | – | production of butanol ([2]; lactic acid added (10 g/L or less) compared to when not added): improved butanol-producing effect; also recorded: improved production of butanol
[Na+].[OH-] [sodium hydroxide, sodium hydroxide (NaOH)] | – | faster in the order of calcium hydroxide, potassium hydroxide, ammonia water and sodium hydroxide | –
N [ammonia water, ammonia water (NH4OH)] | – | faster in the order of calcium hydroxide, potassium hydroxide, ammonia water and sodium hydroxide | –
[K+].[OH-] [potassium hydroxide, potassium hydroxide (KOH)] | – | faster in the order of calcium hydroxide, potassium hydroxide, ammonia water and sodium hydroxide | –
